The record followed here is patent US20260355188A1, “COMBINATION THERAPIES USING PRMT5 INHIBITORS AND BCL-2 FAMILY INHIBITORS FOR THE TREATMENT OF CANCER” (MIRATI THERAPEUTICS, INC., priority 2022, published 2026).

In experiment [1] the test system is A549. The experiment is described as follows: In vitro combination synergy, A549 (Cell-Titer Glo). The format is cell-based. The conditions noted are these: combined with exemplary PRMT5 inhibitor, 120 h, sum of Loewe, Bliss, HSA and ZIP scores. The procedure: (§1) A panel of MTAP-deleted cancer cell lines was assembled to determine whether combining BCL-2 family inhibitors with exemplary PRMT5 inhibitors disclosed herein results in synergistic activity.
(§2) [Assays for determining the synergy score for the pairwise combinations for each cell line were performed in triplicate. 384 or 96-well plates plus additional wells of a separate 384 or 96-well control plate for determining baseline luminescence were seeded with cells of a particular MTAP-deleted cell line in a suitable growth medium for that cell line, e.g., RPMI 1640 medium supplemented with 10% FBS and any cell line specific reagents needed for growth. The plates were incubated overnight at 37 °C in a 5% CO2 atmosphere.
(§3) To each of the designated baseline wells, Cell-Titer Glo reagent (CTG; Promega Corporation) was added to each well and the plates were incubated for 20 min shaking at room temperature. Baseline luminescence was quantitated using a BMG ClarioStar multimode plate reader according to the manufacturer's instructions.
(§4) A series of 1000× drug dilutions in 100% DMSO was prepared that includes a 9-point single agent 3-fold dilution of the exemplary PRMT5 inhibitor (of the type described in WO2021/050915) with a top dose of 3000 nM (and a 6-point single agent 5-fold dilution of the BCL-2 family inhibitor with a top dose of 3000 nM as reference standards.
(§5) A 10× intermediate dosing plate was prepared in serum free medium that contains arrayed single agent dilutions of exemplary PRMT5 inhibitor (of the type described in WO2021/050915) and or the BCL-2 family inhibitor. In addition, a matrix of 54 dilution combinations of exemplary PRMT5 inhibitor (of the type described in WO2021/050915) and the BCL-2 family inhibitor was prepared as test samples.
(§6) To each corresponding well of the 384-well plates seeded with the appropriate cell line above, 10× single agent and the 54 combinations of the dose matrix was added and the plates were incubated for 120 hours at 37 °C in 5% CO2 atmosphere. Cell-Titer Glo reagent (CTG) was added to each test well, the plates were incubated for 20 min shaking at room temperature, and luminescence was quantitated using a BMG ClarioStar multimode plate reader according to the manufacturer's instructions. To normalize test samples, the determined baseline luminescence was subtracted from each test sample prior to analysis and mean values are calculated from replicate samples.
(§7) The output of the data from each mathematical model is the assignment of a relative synergy score. The data reported in Table 6 are the aggregate sum of the Loewe additivity, Bliss independence, Highest Single Agent and ZIP synergy scores (“Composite Synergy Score”).

Experiment [2] has as its system H1437. The experiment is described as follows: In vitro combination synergy, H1437 (Cell-Titer Glo). Type of experiment: cell-based. The conditions noted are these: combined with exemplary PRMT5 inhibitor, 120 h, sum of Loewe, Bliss, HSA and ZIP scores. The procedure: as §1, §2, §3, §4, §5, §6, §7
The subject of experiment [3] is H1650. The experiment is described as follows: In vitro combination synergy, H1650 (Cell-Titer Glo). The format is cell-based. The conditions noted are these: combined with exemplary PRMT5 inhibitor, 120 h, sum of Loewe, Bliss, HSA and ZIP scores. The procedure:
as §1, §2, §3, §4, §5, §6, §7

For experiment [4], the system named is H2228. The experiment is described as follows: In vitro combination synergy, H2228 (Cell-Titer Glo). Type of experiment: cell-based. The conditions noted are these: combined with exemplary PRMT5 inhibitor, 120 h, sum of Loewe, Bliss, HSA and ZIP scores. The procedure: as §1, §2, §3, §4, §5, §6, §7
In experiment [5] the test system is HCC4006. The experiment is described as follows: In vitro combination synergy, HCC4006 (Cell-Titer Glo). The format is cell-based. The note with it: combined with exemplary PRMT5 inhibitor, 120 h, sum of Loewe, Bliss, HSA and ZIP scores. On the procedure:
as §1, §2, §3, §4, §5, §6, §7

For experiment [6], the system named is LU99. The experiment is described as follows: In vitro combination synergy, LU99 (Cell-Titer Glo). Type of experiment: cell-based. The note with it: combined with exemplary PRMT5 inhibitor, 120 h, sum of Loewe, Bliss, HSA and ZIP scores. The procedure: as §1, §2, §3, §4, §5, §6, §7
The subject of experiment [7] is SW1573. The experiment is described as follows: In vitro combination synergy, SW1573 (Cell-Titer Glo). Type of experiment: cell-based. The note with it: combined with exemplary PRMT5 inhibitor, 120 h, sum of Loewe, Bliss, HSA and ZIP scores. On the procedure:
as §1, §2, §3, §4, §5, §6, §7

The subject of experiment [8] is H2052. The experiment is described as follows: In vitro combination synergy, H2052 (Cell-Titer Glo). Type of experiment: cell-based. The note with it: combined with exemplary PRMT5 inhibitor, 120 h, sum of Loewe, Bliss, HSA and ZIP scores. The procedure:
as §1, §2, §3, §4, §5, §6, §7

Experiment [9] relates to H2452. The experiment is described as follows: In vitro combination synergy, H2452 (Cell-Titer Glo). The format is cell-based. The note with it: combined with exemplary PRMT5 inhibitor, 120 h, sum of Loewe, Bliss, HSA and ZIP scores. On the procedure: as §1, §2, §3, §4, §5, §6, §7
The test system of experiment [10] is Mero14. The experiment is described as follows: In vitro combination synergy, Mero14 (Cell-Titer Glo). Type of experiment: cell-based. The conditions noted are these: combined with exemplary PRMT5 inhibitor, 120 h, sum of Loewe, Bliss, HSA and ZIP scores. On the procedure:
as §1, §2, §3, §4, §5, §6, §7

Experiment [11] deals with Mero83. The experiment is described as follows: In vitro combination synergy, Mero83 (Cell-Titer Glo). Type of experiment: cell-based. The note with it: combined with exemplary PRMT5 inhibitor, 120 h, sum of Loewe, Bliss, HSA and ZIP scores. On the procedure:
as §1, §2, §3, §4, §5, §6, §7

Experiment [12] deals with Mero84. The experiment is described as follows: In vitro combination synergy, Mero84 (Cell-Titer Glo). The format is cell-based. The note with it: combined with exemplary PRMT5 inhibitor, 120 h, sum of Loewe, Bliss, HSA and ZIP scores. On the procedure: as §1, §2, §3, §4, §5, §6, §7
The subject of experiment [13] is Miapaca2. The experiment is described as follows: In vitro combination synergy, Miapaca2 (Cell-Titer Glo). Type of experiment: cell-based. The note with it: combined with exemplary PRMT5 inhibitor, 120 h, sum of Loewe, Bliss, HSA and ZIP scores. The procedure:
as §1, §2, §3, §4, §5, §6, §7

Experiment [14] relates to SU8686. The experiment is described as follows: In vitro combination synergy, SU8686 (Cell-Titer Glo). Type of experiment: cell-based. The conditions noted are these: combined with exemplary PRMT5 inhibitor, 120 h, sum of Loewe, Bliss, HSA and ZIP scores. On the procedure: as §1, §2, §3, §4, §5, §6, §7
The subject of experiment [15] is RT4. The experiment is described as follows: In vitro combination synergy, RT4 (Cell-Titer Glo). The conditions noted are these: combined with exemplary PRMT5 inhibitor, 120 h, sum of Loewe, Bliss, HSA and ZIP scores. The format is cell-based. The procedure: as §1, §2, §3, §4, §5, §6, §7
The subject of experiment [16] is LU99 xenograft tumors. The experiment is described as follows: In vivo combination study (LU99 model), Example 1. On the set-up: species or system female nu/nu mice. The note with it: MRTX1719, ABT-263, ABT-199 each 100 mg/kg PO QD, alone or combined. The text has this:
Immunodeficient female nu/nu mice were implanted with 5×10^6 LU99 cancer cells in 50% Matrigel. Tumor volume measurements were collected using calipers and determined utilizing the formula 0.5×L×W^2 in which L refers to length and W refers to width of each tumor. When tumors reached approximately 125-150 mm^3, animals were randomized to receive A) vehicle, B) a PRMT5 inhibitor, C) navitoclax (ABT-263), D) venetoclax (ABT-199), E) A-1331852, F) the PRMT5 inhibitor and navitoclax, F) the PRMT5 inhibitor and venetoclax, or G) the PRMT5 inhibitor and A-1331852 all administered orally (PO) with the indicated dose and schedule for 20-34 days. Tumor volume was measured twice a week (n=5/treatment group). Average tumor volume and standard error of the mean was calculated and plotted at each study day using GraphPad Prism.
The PRMT5 inhibitor was MRTX1719 administered at 100 mg/kg once a day (QD). MRTX1719 is (2M)-2-(4-(4-(aminomethyl)-1-oxo-1,2-dihydrophthalazin-6-yl)-1-methyl-1H-pyrazol-5-yl)-4-chloro-6-cyclopropoxy-3-fluorobenzonitrile, disclosed as Example 16-8 at p. 307 of the international patent publication No. WO 2021/050915 A1, published 18 Mar. 2021, incorporated by reference in its entirety.
The BCL-2 family inhibitors used in this example, ABT-199 (venetoclax) and ABT-263 (navitoclax), were administered at 100 mg/kg once a day (QD) and supplied by Selleck Chemicals (Houston, TX).

For `CN(C)CC#Cc1ccc(OCCCc2sc(N3CCc4cccc(C(=O)Nc5nc6ccccc6s5)c4C3)nc2C(=O)O)c(F)c1` [A-1155463], the “Composite Synergy Score” value is 22 in [1]; 17 in experiment [2]; 51 in experiment [3]; 46 in experiment [4]; 88 in [5]; 27 in [6]. For the same compound, the “Composite Synergy Score” value in experiment [7] is 29; in experiment [8], 14; in experiment [9], 37; in [10] it was 12; in [11], −11; in experiment [12] it was 0. Moreover, the “Composite Synergy Score” value is on record as 44 in experiment [13], 50 in experiment [14] and 37 in experiment [15].
In the case of `CC1(C)CCC(CN2CCN(c3ccc(C(=O)NS(=O)(=O)c4ccc(NCC5CCOCC5)c([N+](=O)[O-])c4)c(Oc4cnc5[nH]ccc5c4)c3)CC2)=C(c2ccc(Cl)cc2)C1` [ABT-199, venetoclax], the “Average Tumor Volume” value was determined as 270 mm^3 in experiment [16] (day 3); 462 mm^3 in experiment [16] (day 6); 709 mm^3 in experiment [16] (day 10); 956 mm^3 in [16] (day 13); 1395 mm^3 in experiment [16] (day 17); 1675 mm^3 in [16] (day 20). In addition, the “Average Tumor Volume” value in experiment [16] (day −1) came out at 153 mm^3. Moreover, the “Composite Synergy Score” value is −7 in experiment [1]; 2 in experiment [2]; −11 in experiment [3]; −13 in [4]; −6 in experiment [5]; −8 in experiment [6]. Also, the “Composite Synergy Score” value in [7] is recorded as −16; in experiment [8], −33; in experiment [9] it was 28; in [10] it was −8; in experiment [11], 20; in experiment [12], −12. Further, the “Composite Synergy Score” value in experiment [13] is reported as −7; in experiment [14], 4; in experiment [15] it was 0.
